Data published in paper PMC11555717 (Cancer Medicine, 2024).
“Also recorded” adds a separate entry of the source. Marks after values point to notes of the source that are not given here.

Assays:
[1] = EV-203 pharmacokinetics of ADC, TAb and free MMAE in serum or plasma; assay type: in vivo, human; settings: for Serum concentration at end of infusion / AUC0–7d / C max: mean (SD); for AUC0–7d: 1.25 mg/kg IV
Experimental: In the PK cohort (i.e., PK analysis set), intensive PK sampling was performed wherein blood samples for analysis of ADC, total antibody (TAb), and free (unconjugated) MMAE were collected at prespecified time points. […] Blood samples for antitherapeutic antibodies (ATAs) were collected predose on Day 1 of cycles 1 to 4, 6, 8, 10, and within 30–37 days after the last study dose. Validated assays were used to measure concentrations of ADC, TAb, and free MMAE in serum or plasma and to assess ATA levels.
All patients who received any amount of study drug were included in the primary analyses of efficacy endpoints and safety analyses. The PK analyses included data from patients in the PK cohort who received at least 3 of 4 doses of the study drug through cycle 2 Day 1 and had at least five blood samples collected and assayed for measurements of ADC, TAb, or free MMAE concentrations to determine at least one PK parameter.

[2] = system: Chinese patients with previously treated locally advanced or metastatic urothelial carcinoma; assay: EV-203 phase 2: antitumor activity per RECIST v1.1 (IRC and investigator), PFS, OS; assay type: in vivo, human; settings: for Confirmed disease control rate (95% CI): CR, PR or stable disease; for Duration of response, median (95% CI): NE = not evaluable; for Confirmed best overall response: Stable disease: minimum duration 49 days; for Confirmed objective response rate (95% CI): RECIST v1.1, 1.25 mg/kg
Source text: This was a single‐arm, open‐label phase 2 study that enrolled patients from six centers in China. Up to 40 patients were planned for enrollment. Two of the study centers were designated as PK cohort sites and planned to enroll 12 or more patients who agreed to intensive PK sampling for PK analysis in addition to safety and efficacy assessments.
The study enrolled Chinese adults (age ≥ 18 years or considered an adult per local regulations) with histologically or cytologically confirmed UC/transitional cell carcinoma of the bladder, renal pelvis, ureter, or urethra not amenable to curative intent treatment. Patients with other histologies, including adenocarcinoma, squamous differentiation, or mixed, were also eligible. Patients must have received prior treatment with platinum‐based chemotherapy and PD‐1/L1 inhibitor therapy in the locally advanced or metastatic setting or in the neoadjuvant or adjuvant setting with recurrence or progressive disease during therapy or within 12 months (platinum‐based chemotherapy) or 3 months (PD‐1/L1 inhibitor) of completion of treatment; had baseline measurable disease according to Response Evaluation Criteria in Solid Tumors (RECIST) version 1.1; and an Eastern Cooperative Oncology Group performance status (ECOG PS) of 0–1. Key exclusion criteria were preexisting grade 2 or higher sensory/motor neuropathy; active central nervous system metastases; clinically significant toxicity associated with prior treatment; ongoing grade 3 or higher immunotherapy‐related hypothyroidism or panhypopituitarism, ongoing immunotherapy‐related colitis, uveitis, myocarditis, or pneumonitis; other immunotherapy‐related adverse events (AEs) requiring high‐dose steroids (prednisone > 20 mg/day or equivalent); or history of uncontrolled diabetes mellitus (glycated hemoglobin ≥ 8% or between 7% and < 8% with diabetes‐related symptoms not otherwise explained) within 3 months prior to the first study dose.
Study treatment continued until one or more of the following occurred: patient or investigator decision; documented radiologic disease progression per RECIST version 1.1 by investigator assessment; start of new anticancer therapy; unacceptable toxicity; pregnancy; protocol noncompliance; or more than six consecutive doses of study treatment missed by the patient. Prespecified dose modifications were permitted depending on AE type and severity.
Antitumor activity was assessed every 8 weeks (±1 week) via computed tomography with contrast. After 1 year of study, imaging frequency was reduced to every 12 weeks (±1 week). Complete response (CR) and partial response (PR; per RECIST version 1.1) were confirmed by repeat scans conducted at least 4 weeks after the initial response. Responses were assessed by investigators and an independent review committee (IRC). Tumor assessments were continued until the study end or the first occurrence of radiologic disease progression per RECIST version 1.1, as determined by investigator assessment, the patient initiated new anticancer therapy, or the patient died, withdrew study consent, or was lost to follow‐up.
The primary efficacy endpoint was confirmed ORR as assessed by IRC. The ORR was defined as the proportion of patients with CR or PR according to RECIST version 1.1. […] Other primary endpoints included selected PK parameters of ADC, TAb, and free MMAE.
Secondary endpoints were confirmed ORR by investigator assessment; DOR, disease control rate (DCR), and progression‐free survival (PFS) by IRC and investigator assessments; OS; incidence of ATAs to ADC; and safety/tolerability. PFS was defined as the time from the start of the study treatment to the first documentation of objective tumor progression (i.e., progressive disease per RECIST version 1.1) by IRC or investigator assessment (whichever was specified) or to death due to any cause, whichever came first. OS was defined as the time from the start of study treatment to the date of death due to any cause. […]

[3] = system: patients with locally advanced or mUC previously treated with platinum-based chemotherapy and PD-1/L1 inhibitors; settings: cited from earlier work
[4] = system: patients with previously treated locally advanced or mUC; settings: EV-301; cited from earlier work
[5] = serum, Cycle 1 Day 1, PK cohort
[6] = serum, Cycle 1 Day 15, PK cohort

With “enfortumab vedotin: fully human monoclonal ADC directed to Nectin-4, delivering intracellular monomethyl auristatin E (MMAE) to tumor cells” the “Serum concentration at end of infusion” value ([1]; cycle 1 Day 1, Non-PK cohort) was 25,300 (3830) [23] ng/mL, the “Serum concentration at end of infusion” value ([1]; cycle 1 Day 1, PK cohort) was 27,700 (4410) [13] ng/mL and the “Serum concentration at end of infusion” value ([1]; cycle 1 Day 8, Non-PK cohort) was 24,900 (5400) [17] ng/mL. The “Serum concentration at end of infusion” value ([1]; cycle 1 Day 8, PK cohort) was 27,400 (4390) [12] ng/mL, the “Serum concentration at end of infusion” value ([1]; cycle 1 Day 15, Non-PK cohort) was 22,000 (5980) [11] ng/mL and the “Serum concentration at end of infusion” value ([1]; cycle 1 Day 15, PK cohort) was 27,500 (3820) [10] ng/mL. For the same substance, the “AUC0–7d” value [1, 5] was 32.4 (6.2) day μg/mL, the C max [1, 5] was 28.1 (4.52) μg/mL and the “AUC0–7d” value [1, 6] was 36.5 (7.9) day μg/mL. The C max [1, 6] was 27.6 (4.01) μg/mL, the “Time of peak serum concentration” value ([1]; serum, PK cohort cycle 1) was “at the end of the enfortumab vedotin infusion” and the “Median time to response” value ([2]; IRC assessment) was 1.8 (range, 1.7–3.8) months. For the same substance, the “Median PFS” value ([2]; IRC assessment, N = 40) was 4.7 months, the “Best overall response PR, patients” value ([2]; IRC, 14 patients) was 35.0% and the “Patients with reductions of 30% or more from baseline in target lesions” value ([2]; IRC, 24 of 37 patients) was 64.9%. For the same substance, the “Patients with reduction in sum of diameters of target lesions from baseline” value ([2]; IRC, 33 of 37 patients with baseline and postbaseline assessments) was 89.2%, the “Confirmed disease control rate (95% CI)” value ([2]; IRC, N = 40) was 72.5 (56.1–85.4) % and the “Rate of duration of response (95% CI) at 6 months” value ([2]; IRC, Kaplan–Meier) was 59.7 (22.2–83.8) %. The “Duration of response, median (95% CI)” value ([2]; IRC, Kaplan–Meier) was “not reached; also recorded: NE (2.04–NE)”, the “Confirmed best overall response: CR” value ([2]; IRC, N = 40) was 1 (2.5) n (%) and the “Confirmed best overall response: NE (not evaluable)” value ([2]; IRC, N = 40) was 4 (10.0) n (%). For the same substance, the “Confirmed best overall response: PR” value ([2]; IRC, N = 40) was 14 (35.0) n (%), the “Confirmed best overall response: Progressive disease” value ([2]; IRC, N = 40) was 7 (17.5) n (%) and the “Confirmed best overall response: Stable disease” value ([2]; IRC, N = 40) was 14 (35.0) n (%). The “Confirmed objective response rate (95% CI)” value ([2]; IRC, N = 40) was 37.5 (22.7–54.2) ^b %, the “ORR, subgroup patients with liver metastases” value ([2]; IRC, n/N = 5/11) was 45.5% and the “ORR, subgroup three or more lines of systemic therapy” value ([2]; IRC, n/N = 6/18) was 33.3%. The “ORR, subgroup baseline ECOG PS of 0” value ([2]; IRC, n/N = 7/10) was 70.0%, the “ORR, subgroup primary tumor site bladder or other” value ([2]; IRC, n/N = 7/11) was 63.6% and the “ORR, subgroup primary tumor site upper tract” value ([2]; IRC, n/N = 8/29) was 27.6%. The “ORR, subgroup baseline ECOG PS of 1” value ([2]; IRC, n/N = 8/30) was 26.7%, the “Best overall response CR, patients” value ([2]; IRC, one patient) was 2.5% and the “Confirmed disease control rate (95% CI)” value ([2]; Investigator, N = 40) was 82.5 (67.2–92.7) %. The “Rate of duration of response (95% CI) at 6 months” value ([2]; Investigator, Kaplan–Meier) was 61.1 (26.2–83.4) %, the “Duration of response, median (95% CI)” value ([2]; Investigator, Kaplan–Meier) was “not reached; also recorded: NE (2.04–NE)” and the “Confirmed best overall response: CR” value ([2]; Investigator, N = 40) was 0 n (%). For the same substance, the “Confirmed best overall response: NE (not evaluable)” value ([2]; Investigator, N = 40) was 3 (7.5) n (%), the “Confirmed best overall response: PR” value ([2]; Investigator, N = 40) was 17 (42.5) n (%) and the “Confirmed best overall response: Progressive disease” value ([2]; Investigator, N = 40) was 4 (10.0) n (%). The “Confirmed best overall response: Stable disease” value ([2]; Investigator, N = 40) was 16 (40.0) n (%), the “Confirmed objective response rate (95% CI)” value ([2]; Investigator, N = 40) was 42.5 (27.0–59.1) % and the “Overall survival at 6 months (95% CI)” value ([2]; Kaplan–Meier, N = 40) was 78.0 (60.1–88.6) %. For the same substance, the “Median PFS” value ([2]; investigator assessment, N = 40) was 4.2 months, the “Median OS” value ([2]; median follow-up 6.5 months) was “not reached (lower bound of 95% CI: 6.74)” and the “Median duration of response (DOR)” value ([3]; EV-201) was 7.6 months. For the same substance, the “Objective response rate (ORR)” value ([3]; EV-201 cohort 1 (n = 125)) was 44%, the “Median OS” value [4] was 12.88 months and the “Median PFS” value [4] was 5.6 months. For the same substance, the “Probability of OS at 6 months” value [4] was “approximately 80%”.
